Experimental findings from patent US10329283B2, “G protein-coupled receptor kinase inhibitors and methods for use of the same” (THE REGENTS OF THE UNIVERSITY OF MICHIGAN, priority 2015, dated 2019) are described below.

Counter-ions that a name gives are not always drawn. A value given as a limit tells only on which side of the number the result lay.

Holding throughout (format): biochemical
What all share (conditions): 50 nM GRK, 5 μM ATP, 500 nM bROS or tubulin, 5 min

One assay concerns the target T1, GRK1 (Bos taurus, UniProt P28327).
T1 sequence (P28327 1-535 limits assumed): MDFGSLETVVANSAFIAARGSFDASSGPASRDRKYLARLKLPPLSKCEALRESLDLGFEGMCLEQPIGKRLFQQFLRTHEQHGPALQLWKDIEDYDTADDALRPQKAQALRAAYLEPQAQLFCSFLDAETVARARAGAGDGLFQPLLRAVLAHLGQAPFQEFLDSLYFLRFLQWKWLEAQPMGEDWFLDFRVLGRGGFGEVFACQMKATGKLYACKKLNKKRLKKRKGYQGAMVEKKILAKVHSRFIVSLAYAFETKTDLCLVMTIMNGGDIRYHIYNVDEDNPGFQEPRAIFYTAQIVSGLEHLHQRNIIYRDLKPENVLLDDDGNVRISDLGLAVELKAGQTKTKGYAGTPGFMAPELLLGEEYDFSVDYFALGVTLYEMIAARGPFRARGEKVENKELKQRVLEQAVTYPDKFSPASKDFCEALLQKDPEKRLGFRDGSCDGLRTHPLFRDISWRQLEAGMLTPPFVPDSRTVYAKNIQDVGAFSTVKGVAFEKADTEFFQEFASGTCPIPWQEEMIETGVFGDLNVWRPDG
The assay can be described thus: GRK1 kinetic assay for inhibition of GRKs (phosphorimaging). On the procedure: (§1) The low salt concentration and DDM were used to maximize GRK activity and disrupt small molecule aggregates from forming, respectively. […] Data was analyzed and inhibition curves were fit via GraphPad Prism.

A further assay has as its target GRK5 (Homo sapiens, UniProt P34947). The assay can be described thus: GRK5 kinetic assay for inhibition of GRKs (phosphorimaging). How it is done: as §1
The target in the next assay is T2, GRK2 (Homo sapiens, UniProt P25098).
T2 sequence (P25098 1-689): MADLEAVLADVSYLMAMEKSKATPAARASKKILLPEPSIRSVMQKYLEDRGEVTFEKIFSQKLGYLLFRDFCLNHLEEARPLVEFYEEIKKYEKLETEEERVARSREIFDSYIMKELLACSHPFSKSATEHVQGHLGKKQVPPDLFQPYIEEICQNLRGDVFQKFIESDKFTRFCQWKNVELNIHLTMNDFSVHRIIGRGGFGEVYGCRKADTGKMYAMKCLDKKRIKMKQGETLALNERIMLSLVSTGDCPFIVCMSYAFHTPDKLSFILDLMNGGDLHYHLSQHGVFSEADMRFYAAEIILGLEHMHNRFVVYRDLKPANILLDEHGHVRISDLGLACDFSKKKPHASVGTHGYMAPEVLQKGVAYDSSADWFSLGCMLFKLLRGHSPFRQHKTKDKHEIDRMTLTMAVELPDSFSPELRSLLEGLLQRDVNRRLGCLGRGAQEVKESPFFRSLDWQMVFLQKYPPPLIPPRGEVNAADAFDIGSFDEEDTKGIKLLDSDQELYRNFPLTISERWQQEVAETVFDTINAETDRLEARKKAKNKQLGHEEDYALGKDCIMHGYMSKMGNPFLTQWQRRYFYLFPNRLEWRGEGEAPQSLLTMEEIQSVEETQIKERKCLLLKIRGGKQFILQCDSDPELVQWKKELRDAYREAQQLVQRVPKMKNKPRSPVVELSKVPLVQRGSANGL
The assay can be described thus: GRK2 kinetic assay for inhibition of GRKs (phosphorimaging). On the procedure: as §1

Chain of GRK5 (P34947 whole entry, species assumed): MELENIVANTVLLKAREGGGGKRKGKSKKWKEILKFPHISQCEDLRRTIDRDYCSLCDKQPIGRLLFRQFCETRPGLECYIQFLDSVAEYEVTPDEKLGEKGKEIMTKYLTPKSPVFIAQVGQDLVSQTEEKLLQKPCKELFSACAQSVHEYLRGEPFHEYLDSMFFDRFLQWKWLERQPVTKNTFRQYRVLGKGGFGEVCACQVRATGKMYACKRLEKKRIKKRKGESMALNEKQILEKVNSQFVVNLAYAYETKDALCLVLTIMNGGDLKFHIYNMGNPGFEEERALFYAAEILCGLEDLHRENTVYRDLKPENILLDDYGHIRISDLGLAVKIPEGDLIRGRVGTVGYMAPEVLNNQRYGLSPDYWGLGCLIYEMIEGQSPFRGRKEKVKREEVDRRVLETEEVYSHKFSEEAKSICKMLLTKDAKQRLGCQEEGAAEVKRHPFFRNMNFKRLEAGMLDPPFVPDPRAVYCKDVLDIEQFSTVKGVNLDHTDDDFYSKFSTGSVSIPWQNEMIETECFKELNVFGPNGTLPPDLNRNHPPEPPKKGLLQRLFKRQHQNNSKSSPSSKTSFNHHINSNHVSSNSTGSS

For orientation: IC50 means the concentration needed to halve the response being measured. A high value points to a need for much substance. `O=C(Cc1cc([C@@H]2CCNC[C@H]2COc2ccc3c(c2)OCO3)ccc1F)NCc1c(F)cccc1F` [Example E01, 2-(5-((3S,4R)-3-((benzo[d][1,3]dioxol-5-yloxy)methyl)piperidin-4-yl)-2-fluorophenyl)-N-(2,6-difluorobenzyl)acetamide hydrochloride]: the figures for the IC50 against GRK1, against GRK5 and against GRK2 were greater than 100 µM, greater than 100 µM and 2.53 µM, respectively. With `O=C(Cc1cc([C@@H]2CCNC[C@H]2COc2ccc3c(c2)OCO3)ccc1F)NCCc1c(F)cccc1F` [Example E02, 2-(5-((3S,4R)-3-((benzo[d][1,3]dioxol-5-yloxy)methyl)piperidin-4-yl)-2-fluorophenyl)-N-(2,6-difluorophenethyl)acetamide hydrochloride], the IC50 against GRK1 is 95.3 µM; against GRK5 it was greater than 100 µM; at GRK2, 0.42 µM.

For the molecule `O=C(Cc1cc([C@@H]2CCNC[C@H]2COc2ccc3c(c2)OCO3)ccc1F)NCCc1ccccn1` [Example E03, 2-(5-((3S,4R)-3-((benzo[d][1,3]dioxol-5-yloxy)methyl)piperidin-4-yl)-2-fluorophenyl)-N-(2-(pyridin-2-yl)ethyl)acetamide hydrochloride], the IC50 at GRK5 is greater than 100 µM; at GRK2 it was 3.65 µM.

Turning to `O=C(Cc1cc([C@@H]2CCNC[C@H]2COc2ccc3c(c2)OCO3)ccc1F)NCCc1cn[nH]c1` [Example E04, N-(2-(1H-pyrazol-4-yl)ethyl)-2-(5-((3S,4R)-3-((benzo[d][1,3]dioxol-5-yloxy)methyl)piperidin-4-yl)-2-fluorophenyl)acetamide hydrochloride], the IC50 at GRK5 is greater than 100 µM; at GRK2 it was 0.62 µM. On to `O=C(Cc1cc([C@@H]2CCNC[C@H]2COc2ccc3c(c2)OCO3)ccc1F)NCc1ccccn1` [Example E05, 2-(5-((3S,4R)-3-((benzo[d][1,3]dioxol-5-yloxy)methyl)piperidin-4-yl)-2-fluorophenyl)-N-(pyridin-2-ylmethyl)acetamide hydrochloride], for which the 50% inhibitory concentration (IC50) against GRK1 is 59.2 µM; against GRK5 it was greater than 100 µM; against GRK2, 3.61 µM. On to `COc1ccccc1CNC(=O)Cc1cc([C@@H]2CCNC[C@H]2COc2ccc3c(c2)OCO3)ccc1F` [Example E06, 2-(5-((3S,4R)-3-((benzo[d][1,3]dioxol-5-yloxy)methyl)piperidin-4-yl)-2-fluorophenyl)-N-(2-methoxybenzyl)acetamide hydrochloride], for which the IC50 at GRK5 is greater than 100 µM; at GRK2, 0.64 µM. With `O=C(NCc1ccccn1)c1cc([C@@H]2CCNC[C@H]2COc2ccc3c(c2)OCO3)ccc1F` [Example E07, 5-((3S,4R)-3-((benzo[d][1,3]dioxol-5-yloxy)methyl)piperidin-4-yl)-2-fluoro-N-(pyridin-2-ylmethyl)benzamide hydrochloride], the IC50 on GRK5 is 15.2 µM; against GRK2 it was 0.44 µM. In the same order, the values of `O=C(NCCc1cn[nH]c1)c1cc([C@@H]2CCNC[C@H]2COc2ccc3c(c2)OCO3)ccc1F` [Example E08, N-(2-(1H-pyrazol-4-yl)ethyl)-5-((3S,4R)-3-((benzo[d][1,3]dioxol-5-yloxy)methyl)piperidin-4-yl)-2-fluorobenzamide hydrochloride] are greater than 100 µM and 1.75 µM. Turning to `COc1ccccc1CNC(=O)c1cc([C@@H]2CCNC[C@H]2COc2ccc3c(c2)OCO3)ccc1F` [Example E09, 5-((3S,4R)-3-((benzo[d][1,3]dioxol-5-yloxy)methyl)piperidin-4-yl)-2-fluoro-N-(2-methoxybenzyl)benzamide hydrochloride], the IC50 was greater than 100 µM on GRK5 and 48.5 µM at GRK2.

`O=C(NCc1ccccc1C(F)(F)F)c1cc([C@@H]2CCNC[C@H]2COc2ccc3c(c2)OCO3)ccc1F` [Example E10, 5-((3S,4R)-3-((benzo[d][1,3]dioxol-5-yloxy)methyl)piperidin-4-yl)-2-fluoro-N-(2-(trifluoromethyl)benzyl)benzamide hydrochloride]: the IC50 is 61.9 µM on GRK5 and 12.5 µM at GRK2. With `O=C(NCc1c(F)cccc1F)c1cc([C@@H]2CCNC[C@H]2COc2ccc3c(c2)OCO3)ccc1F` [Example E11, 5-((3S,4R)-3-((benzo[d][1,3]dioxol-5-yloxy)methyl)piperidin-4-yl)-N-(2,6-difluorobenzyl)-2-fluorobenzamide hydrochloride], it took 45.5 µM to reach half-maximal inhibition at GRK5 (IC50). For `Cc1cccc(C)c1CNC(=O)c1cc([C@@H]2CCNC[C@H]2COc2ccc3c(c2)OCO3)ccc1F` [Example E13, 5-((3S,4R)-3-((benzo[d][1,3]dioxol-5-yloxy)methyl)piperidin-4-yl)-N-(2,6-dimethylbenzyl)-2-fluorobenzamide hydrochloride], the IC50 on GRK1 came to 11.3 µM; on GRK5, 56.4 µM; against GRK2 it was 1.01 µM. In the same order, the values of `O=C(NCc1c(C(F)(F)F)cccc1C(F)(F)F)c1cc([C@@H]2CCNC[C@H]2COc2ccc3c(c2)OCO3)ccc1F` [Example E14, 5-((3S,4R)-3-((benzo[d][1,3]dioxol-5-yloxy)methyl)piperidin-4-yl)-N-(2,6-bis(trifluoromethyl)benzyl)-2-fluorobenzamide hydrochloride] are 23.6 µM, 41.1 µM and 0.77 µM. Take `O=C(NCc1ccccc1)c1cc([C@@H]2CCNC[C@H]2COc2ccc3c(c2)OCO3)ccc1F` [Example E19, 5-((3S,4R)-3-((benzo[d][1,3]dioxol-5-yloxy)methyl)piperidin-4-yl)-N-benzyl-2-fluorobenzamide]: the IC50 against GRK5 is 84.3 µM.

For the molecule `O=C(NCCc1ccccc1)c1cc([C@@H]2CCNC[C@H]2COc2ccc3c(c2)OCO3)ccc1F` [Example E20, 5-((3S,4R)-3-((benzo[d][1,3]dioxol-5-yloxy)methyl)piperidin-4-yl)-2-fluoro-N-phenethylbenzamide], the IC50 against GRK5 was greater than 100 µM. Regarding `O=C(NCc1cccnc1)c1cc([C@@H]2CCNC[C@H]2COc2ccc3c(c2)OCO3)ccc1F` [Example E21, 5-((3S,4R)-3-((benzo[d][1,3]dioxol-5-yloxy)methyl)piperidin-4-yl)-2-fluoro-N-(pyridin-3-ylmethyl)benzamide], the IC50 at GRK5 was 76.3 µM. For `O=C(NCc1ccncc1)c1cc([C@@H]2CCNC[C@H]2COc2ccc3c(c2)OCO3)ccc1F` [Example E22, 5-((3S,4R)-3-((benzo[d][1,3]dioxol-5-yloxy)methyl)piperidin-4-yl)-2-fluoro-N-(pyridin-4-ylmethyl)benzamide], the half-maximal inhibitory concentration (IC50) at GRK5 is greater than 100 µM. At GRK5, `O=C(NCCc1ccccn1)c1cc([C@@H]2CCNC[C@H]2COc2ccc3c(c2)OCO3)ccc1F` [Example E23, 5-((3S,4R)-3-((benzo[d][1,3]dioxol-5-yloxy)methyl)piperidin-4-yl)-2-fluoro-N-(2-(pyridin-2-yl)ethyl)benzamide] returned a half-inhibitory concentration (IC50) greater than 100 µM. In the case of `O=C(NCCc1ccncc1)c1cc([C@@H]2CCNC[C@H]2COc2ccc3c(c2)OCO3)ccc1F` [Example E24, 5-((3S,4R)-3-((benzo[d][1,3]dioxol-5-yloxy)methyl)piperidin-4-yl)-2-fluoro-N-(2-(pyridin-4-yl)ethyl)benzamide], at GRK5, the IC50 is greater than 100 µM. Still for that read-out and setting: for `O=C(NCCc1cccnc1)c1cc([C@@H]2CCNC[C@H]2COc2ccc3c(c2)OCO3)ccc1F` [Example E25, 5-((3S,4R)-3-((benzo[d][1,3]dioxol-5-yloxy)methyl)piperidin-4-yl)-2-fluoro-N-(2-(pyridin-3-yl)ethyl)benzamide] the value was greater than 100 µM; for `O=C(NCc1ncc[nH]1)c1cc([C@@H]2CCNC[C@H]2COc2ccc3c(c2)OCO3)ccc1F` [Example E27, N-((1H-imidazol-2-yl)methyl)-5-((3S,4R)-3-((benzo[d][1,3]dioxol-5-yloxy)methyl)piperidin-4-yl)-2-fluorobenzamide], 14.8 µM; for `O=C(NCCc1c[nH]cn1)c1cc([C@@H]2CCNC[C@H]2COc2ccc3c(c2)OCO3)ccc1F` [Example E28, N-(2-(1H-imidazol-4-yl)ethyl)-5-((3S,4R)-3-((benzo[d][1,3]dioxol-5-yloxy)methyl)piperidin-4-yl)-2-fluorobenzamide], greater than 100 µM.
